Molecular target: T1, human factor Xa (Homo sapiens, UniProt P00742)
T1 construct: purchased Enzyme Research Laboratories
Experiment: Factor Xa chromogenic peptide substrate (S-2222) assay
Format: biochemical
Conditions: human factor Xa 3 nM, chromogenic substrate S-2222, pH 7.8, room temperature; apparent Ki from IC50 by Cheng-Prusoff
Experimental: Factor Xa activity was measured spectrophotometrically in microtiter plates in a final volume of 150 μl using the following conditions: Inhibition of human factor Xa (Enzyme Research Laboratories) was tested at an enzyme concentration of 3 nM using the chromogenic substrate S-2222 (Chromogenix AB, Mölndal, Sweden) at […]. The reaction kinetics of the enzyme and the substrate were linear with both time and the enzyme concentration. The inhibitors were dissolved in DMSO and tested at various concentrations up to 100 μM. The inhibitors were diluted using HNPT buffer consisting of HEPES100 mM, NaCl 140 mM, PEG 6000 0.1% and Tween 80 0.02%, pH 7.8. The cleavage of S-2222 by human factor Xa was followed at 405 nm for 5 minutes at room temperature. The velocity of the reaction was determined by the autoreader from the slope of the linear regression fit to 7 time points (1 minute). The initial velocity for each inhibitor concentration was determined by the slope of at least 4 time points in the linear phase by a linear regression fit […]. Apparent dissociation constants Ki were calculated according to Cheng and Prusoff [Cheng, Y. C.; Prusoff, W. H. Relationship between the inhibition constant (Ki) and the concentration of the inhibitor that causes 50 percent inhibition (IC50) of an enzyme reaction. Biochem. Pharmacol. 1973, 22, 3099-3108.] based on the IC50 and the respective Km, determined previously (Ki=IC50/(1+S/Km)). The Km for the substrate used was determined under the conditions of the test with at least 5 substrate concentrations ranging from 0.5 to 15 times Km. [Lottenberg R, Hall J A, Blinder M, Binder E P, Jackson C M., The action of thrombin on peptide p-nitroanilide substrates. Substrate selectivity and examination of hydrolysis under different reaction conditions. Biochim Biophys Acta. 1983 Feb. 15; 742(3):539-57]. According to Eadie [Eadie G. S. The inhibition of cholinesterase by physostigmine and prostigmine. J. Biol. Chem. 1942, 146, 85-93.], the Km for S-2222 amounted to 613 μM.

T1 sequence (P00742 235-488 limits assumed): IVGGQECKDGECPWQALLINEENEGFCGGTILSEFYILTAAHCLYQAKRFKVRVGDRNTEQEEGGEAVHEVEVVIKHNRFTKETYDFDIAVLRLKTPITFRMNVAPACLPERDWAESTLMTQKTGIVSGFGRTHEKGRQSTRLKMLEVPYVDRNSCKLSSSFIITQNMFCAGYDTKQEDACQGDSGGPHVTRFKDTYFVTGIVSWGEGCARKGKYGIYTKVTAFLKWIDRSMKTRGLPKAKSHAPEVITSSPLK
T1 sequence (P00742 41-179 partner limits assumed): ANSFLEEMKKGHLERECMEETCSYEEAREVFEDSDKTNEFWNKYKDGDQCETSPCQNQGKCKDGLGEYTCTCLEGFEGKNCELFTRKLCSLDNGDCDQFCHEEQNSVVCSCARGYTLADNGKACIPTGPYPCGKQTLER

| SMILES | Ki |
| --- | --- |
| O=C(Nc1ccc(-n2ccccc2=O)cc1)C1c2ccccc2CN1C(=O)Nc1ccc(Cl)cc1 (stereo in doubt) [Example 4, (S)-1,3-Dihydro-isoindole-1,2-dicarboxylic acid 2-[(4-chloro-phenyl)-amide]1-{[4-(2-oxo-2H-pyridin-1-yl)-phenyl]-amide}] | 2 nM |
| O=C(NCC1CN(C(=O)Nc2ccc(-n3ccccc3=O)cc2F)c2cccc(Cl)c21)c1ccc(Cl)s1 (stereo not drawn) [Example 44, 4-Chloro-3-{[(5-chloro-thiophene-2-carbonyl)-amino]-methyl}-2,3-dihydro-indole-1-carboxylic acid [2-fluoro-4-(2-oxo-2H-pyridin-1-yl)-phenyl]-amide] | 2 nM |
| O=C(Nc1ccc(-n2ccccc2=O)cc1F)[C@H]1Cc2ccccc2CN1C(=O)Nc1ccc(Cl)cc1 [Example 25, (R)-3,4-Dihydro-1H-isoquinoline-2,3-dicarboxylic acid 2-[(4-chloro-phenyl)-amide]3-{[2-fluoro-4-(2-oxo-2H-pyridin-1-yl)-phenyl]-amide}] | 2 nM |
